Results on 23 molecules are retold here after patent US12528777B2, “Quinazolinones derivatives for treatment of non-alcoholic fatty liver disease, preparation and use thereof” (Council of Scientific and Industrial Research, priority 2020, dated 2026).

For the assay, the system named is ATGL. The experiment in a line: Western blot of ATGL level in HepG2 cells. The following applies: for Increase in ATGL level: HepG2 cells, score; for Increase in ATGL level / ATGL level in HepG2 cells: western blot; for EC50: fold increase of ATGL by densitometry, as % of 1.6 fold maximum with siCOP1, doses 10-5000 nM, read-out: EC50 (in-vitro); for ATGL level in HepG2 cells: 24 hours, 10 μM screening or 50 nM-5 μM dose dependent. More on the design: key to Increase in ATGL level: + = slight or in insignificant; ++ = Moderate; +++ and ++++ = active; +++ and ++++ = active; +++++ = very active. The class given is cell-based. How it is done: To select the compounds capable of inhibiting the ubiquitination of ATGL by COP1 by targeting the VP motif, confocal microscopy was performed with the provided molecules. If the compound was effective in inhibiting the interaction, there would be a reduction in the number of fat droplets in the cells after treatment. […] With this rationale in mind, HepG2 cells were induced to accumulate lipid droplets after treatment with 250 µM of oleate and 10 μM of the specific compounds were added. The potential of the compounds to bring about a reduction in the number of fat droplets was then checked by comparison with oleate induced cells by counting number of droplets of approximately 20 cells from each treatment and calculating the average number of lipid droplets of each cell. The selected compounds were then subjected to dose dependent treatments and the ones which could maintain its potency to reduce fat droplets at lower doses were then selected for western blot analysis. The compound which could reduce the number of fat droplets in the cells are expected to raise the levels of ATGL since they are likely to deter COP1 from ubiquitinating ATGL. This increase will be visible only in the protein level and gene expression is likely to remain unchanged since ubiquitination is a […] modification. Thus, western blot was performed to check ATGL levels in the cells with the selected molecules.
HepG2 cells were treated with the compounds 9, 10, 11, 17, 18, 23, 24, 115, 123, 127, 139,107, 171, 179, 73, 187, 211, 215, 219, 223, 232, 238, 241, 244, 258, 299, 308, and 333a, (10 μM for initial screening and 50 nM, 100 nM, 200 nM, 500 nM, 1 μM and 5 μM for dose dependent assays) for 24 hours. After removing media from the cells, the wells were washed with 1×PBS twice to remove any remnant media. Cells were then lysed in lysis buffer containing 50 mM Tris-HCl (pH 7.4), 100 mM NaCl, 1 mM EDTA, 1 mM EGTA, 1% Triton X-100 and protease inhibitor cocktail (Millipore, Billierica, MA, USA). Following centrifugation at 20,000 g for 20 minutes, the protein solution was extracted from the cells. Protein was estimated using Bradford assay. Bradford's reagent (BioRad) was diluted in 1:4 ratio in double distilled water. 2 μl of protein sample was added to 100 μl of the reagent and absorbance was measured at 595 nm. […] of protein was diluted in lysis buffer. 1× loading buffer diluted from 5× stock containing 250 mM Tris-HCl (pH 6.8), 10% SDS, 50% glycerol, 0.1% bromophenol Blue and 10% β-mercaptoethanol was added. The protein samples were then heated at 95° C. for 10 minutes, cooled and centrifuged at 12,000 g for 2 minutes prior to loading.
For western blotting, the proteins were resolved in 10% SDS PAGE (discontinuous buffer system). 1× running buffer containing SDS, Tris Base and Glycine was used to run the gel at 80V for approximately 2 hours. Transfer was done using PVDF membrane (Millipore) having pore size of 0.45 μm. 1× transfer buffer containing Tris-Base, Glycine and 20% methanol was used for wet transfer. Transfer was done at 90V for 3 hours. Following transfer, the PVDF membrane containing the proteins were washed in 1×PBST comprising of 1×PBS and 1% Tween 20 (Sigma Aldrich). The membrane was then incubated for 1 hour at room temperature in 5% skim milk powder to block the non-specific sites. Following multiple washes with 1×PBST to wash away any remaining blocking buffer, the required primary antibody (COP1 [Bethyl Laboraties], ATGL [Cell Signalling Technology] or Actin[Cell Signalling Technology]) prepared with 1×PBST, 1% Bovine Serum Albumin and 0.04% Sodium Azide was added to the membrane and incubated overnight at 4° C. The next day, the membrane was again washed multiple times with 1×PBST to remove any unbound primary antibody. The membrane was then incubated with goat anti-rabbit secondary antibody (Genei) for 1 hour at room temperature and washed again for multiple times with 1×PBST. […]

Regarding `COCCn1cnc2ccc(NC(=O)Nc3cccc(CNC(C)=O)c3)cc2c1=O` [Compound 25, N-(3-(3-(3-(2-methoxyethyl)-4-oxo-3,4-dihydroquinazolin-6-yl)ureido)benzyl)acetamide], the “Increase in ATGL level” value is given as “+”.

In the case of `COCCn1cnc2ccc(NC(=O)Nc3ccc(C(F)(F)F)cc3)cc2c1=O` [Compound 38, 1-(3-(2-methoxyethyl)-4-oxo-3,4-dihydroquinazolin-6-yl)-3-(4-(trifluoromethyl)phenyl)urea], the “Increase in ATGL level” value was “++”. Turning to `COCCn1cnc2ccc(NC(=O)Nc3ccccc3C(F)(F)F)cc2c1=O` [Compound 39, 1-(3-(2-methoxyethyl)-4-oxo-3,4-dihydroquinazolin-6-yl)-3-(2-(trifluoromethyl)phenyl)urea], the “Increase in ATGL level” value is recorded as “++”. Still for that read-out and setting: the value for `COCCn1cnc2ccc(NC(=O)Nc3cccc(C(C)=O)c3)c(-c3ccc(F)cc3)c2c1=O` [Compound 47, 1-(3-acetylphenyl)-3-(5-(4-fluorophenyl)-3-(2-methoxyethyl)-4-oxo-3,4-dihydroquinazolin-6-yl)urea] was “+++”; that for `COCCn1cnc2ccc(NC(=O)Nc3cccc(C(C)=O)c3)c(C3=CCN(C(=O)OC(C)(C)C)CC3)c2c1=O` [Compound 59, tert-butyl 4-(6-(3-(3-acetylphenyl)ureido)-3-(2-methoxyethyl)-4-oxo-3,4-dihydroquinazolin-5-yl)-5,6-dihydropyridine-1 (2H)-carboxylate] was “+”. `COCCn1cnc2ccc(NC(=O)Nc3cccc(C(C)=O)c3)c(C3=CCNCC3)c2c1=O` [Compound 60, 1-(3-acetylphenyl)-3-(3-(2-methoxyethyl)-4-oxo-5-(1,2,3,6-tetrahydropyridin-4-yl)-3,4-dihydroquinazolin-6-yl)urea]: the “Increase in ATGL level” value is “+”. With `COCCn1cnc2ccc(NC(=O)Nc3cccc(C(C)=O)c3)c(C3CCN(C(=O)OC(C)(C)C)CC3)c2c1=O` [Compound 61, tert-butyl 4-(6-(3-(3-acetylphenyl)ureido)-3-(2-methoxyethyl)-4-oxo-3,4-dihydroquinazolin-5-yl)piperidine-1-carboxylate], the “Increase in ATGL level” value is on record as “+”. With `COCCn1cnc2ccc(NC(=O)Nc3cccc(C(C)=O)c3)c(C3CCNCC3)c2c1=O` [Compound 62, 1-(3-acetylphenyl)-3-(3-(2-methoxyethyl)-4-oxo-5-(piperidin-4-yl)-3,4-dihydroquinazolin-6-yl)urea], the “Increase in ATGL level” value is recorded as “+++”. Take `COCCn1cnc2ccc(NC(=O)Nc3cccc(C(C)=O)c3)c(-c3ccc(OC)cc3)c2c1=O` [Compound 64, 1-(3-acetylphenyl)-3-(3-(2-methoxyethyl)-5-(4-methoxyphenyl)-4-oxo-3,4-dihydroquinazolin-6-yl)urea]: the “Increase in ATGL level” value is recorded as “+”.

With `COCCn1cnc2ccc(NC(=O)Nc3cccc(C(C)=O)c3)c(-c3ccc(C(F)(F)F)cc3)c2c1=O` [Compound 66, 1-(3-acetylphenyl)-3-(3-(2-methoxyethyl)-4-oxo-5-(4-(trifluoromethyl)phenyl)-3,4-dihydroquinazolin-6-yl)urea], the “Increase in ATGL level” value is given as “++”. What is called EC50 is the concentration at which the effect is half-maximal. As for `COCCn1c(C2CCCC2)nc2ccc(NC(=O)Nc3cccc(C(C)=O)c3)cc2c1=O` [Compound 127, 1-(3-acetylphenyl)-3-(2-cyclopentyl-3-(2-methoxyethyl)-4-oxo-3,4-dihydroquinazolin-6-yl)urea], the EC50 was found to be 10.8 nM and the “ATGL level in HepG2 cells” value is on record as “increased ATGL level”. Turning to `COc1ccccc1-n1cnc2ccc(NC(=O)Nc3cccc(C(C)=O)c3)cc2c1=O` [Compound 131, 1-(3-acetylphenyl)-3-(3-(2-methoxyphenyl)-4-oxo-3,4-dihydroquinazolin-6-yl)urea], the “Increase in ATGL level” value is recorded as “+”. Still for that read-out and setting: the value for `CC(=O)c1cccc(NC(=O)Nc2ccc3ncn(CCOC(C)C)c(=O)c3c2)c1` [Compound 183, 1-(3-acetylphenyl)-3-(3-(2-isopropoxyethyl)-4-oxo-3,4-dihydroquinazolin-6-yl)urea] was “+++”; that for `CC(=O)c1cccc(NC(=O)Nc2ccc3ncn(C4CCCCC4)c(=O)c3c2)c1` [Compound 187, 1-(3-acetylphenyl)-3-(3-cyclohexyl-4-oxo-3,4-dihydroquinazolin-6-yl)urea] was “+++”. Take `COCCn1c(-c2cnccn2)nc2ccc(NC(=O)Nc3cccc(C(C)=O)c3)cc2c1=O` [Compound 223, 1-(3-acetylphenyl)-3-(3-(2-methoxyethyl)-4-oxo-2-(pyrazin-2-yl)-3,4-dihydroquinazolin-6-yl)urea]: the EC50 was found to be 70.3 nM and the “ATGL level in HepG2 cells” value is given as “increased ATGL level”.

As for `COCCn1c(CN2CCCC2)nc2ccc(NC(=O)Nc3cccc(C(C)=O)c3)cc2c1=O` [Compound 232, 1-(3-acetylphenyl)-3-(3-(2-methoxyethyl)-4-oxo-2-(pyrrolidin-1-ylmethyl)-3,4-dihydroquinazolin-6-yl)urea], the “Increase in ATGL level” value is given as “+++”, the half-maximal effective concentration (EC50) was 434 nM and the “ATGL level in HepG2 cells” value is listed as “increased ATGL level”. For `COCCn1c(CN2CCN(C)CC2)nc2ccc(NC(=O)Nc3cccc(C(C)=O)c3)cc2c1=O` [Compound 244, 1-(3-acetylphenyl)-3-(3-(2-methoxyethyl)-2-((4-methylpiperazin-1-yl)methyl)-4-oxo-3,4-dihydroquinazolin-6-yl)urea], the “ATGL level in HepG2 cells” value was “increased ATGL level”. `CC(=O)c1cccc(NC(=O)Nc2ccc3ncn(CC(=O)Nc4ccccc4Br)c(=O)c3c2)c1` [Compound 259, 2-(6-(3-(3-acetylphenyl)ureido)-4-oxoquinazolin-3 (4H)-yl)-N-(2-bromophenyl)acetamide]: the “Increase in ATGL level” value is reported as “+++”. Turning to `CCC(COC)n1c(C)nc2ccc(NC(=O)Nc3cccc(C(C)=O)c3)cc2c1=O` (stereo not shown) [Compound 281, 1-(3-acetylphenyl)-3-(3-(1-methoxybutan-2-yl)-2-methyl-4-oxo-3,4-dihydroquinazolin-6-yl)ureae], the “Increase in ATGL level” value is “++”.

Regarding `COCC(C)n1c(C)nc2ccc(NC(=O)Nc3cccc(C(C)=O)c3)cc2c1=O` (stereo not shown) [Compound 285, 1-(3-acetylphenyl)-3-(3-(1-methoxypropan-2-yl)-2-methyl-4-oxo-3,4-dihydroquinazolin-6-yl)urea], the “Increase in ATGL level” value is recorded as “+”. `COCCn1c(C2CCN(C(=O)OC(C)(C)C)CC2)nc2ccc(NC(=O)Nc3cccc(C(C)=O)c3)cc2c1=O` [Compound 299, tert-butyl 4-(6-(3-(3-acetylphenyl)ureido)-3-(2-methoxyethyl)-4-oxo-3,4-dihydroquinazolin-2-yl)piperidine-1-carboxylate]: the EC50 is 290 nM and the “ATGL level in HepG2 cells” value is “increased ATGL level”. Regarding `COCCn1cnc2ccc(NC(=O)N(O)c3cccc(C(C)=O)c3)cc2c1=O` [Compound 308, 1-(3-acetylphenyl)-1-hydroxy-3-(3-(2-methoxyethyl)-4-oxo-3,4-dihydroquinazolin-6-yl)urea], the “ATGL level in HepG2 cells” value is “increased ATGL level”. `COCCn1c(C(=O)N2CCN(C)CC2)nc2ccc(NC(=O)Nc3cccc(C(C)=O)c3)cc2c1=O` [Compound 333a, 1-(3-acetylphenyl)-3-(3-(2-methoxyethyl)-2-(4-methylpiperazine-1-carbonyl)-4-oxo-3,4-dihydroquinazolin-6-yl)urea]: the “ATGL level in HepG2 cells” value is “increased ATGL level”.
